From patent US11498896B2 (The Broad Institute, Inc., priority 2014, dated 2022)

Columns and labels:
human D2R/β-arrestin [1] = biological target: T1, human D2R/β-arrestin (Homo sapiens (Human), UniProt P14416); assay: cell-based; settings: β-arrestin Antagonist, CHO-K1 cells expressing human D2R/β-arrestin; antagonist mode, quinpirole 130 nM
human D2R/β-arrestin [2] = biological target: T1, human D2R/β-arrestin; assay: Gi/cAMP agonist assay (Lance Ultra cAMP, forskolin); format: cell-based; settings: CHO-K1 cells expressing human D2R/β-arrestin; agonist mode, 2.5 μM forskolin
Experimental: Eu-cAMP tracer solution (10 μl, PerkinElmer, 360 μl of Tracer in 17.64 ml kit buffer) and ULight-anti-cAMP solution (10 μl, 120 μL antibody in 17.88 ml kit buffer) was then added to each well.

human D2R/β-arrestin [3] = biological target: T1, human D2R/β-arrestin; assay: cell-based; settings: cAMP Antagonist, CHO-K1 cells expressing human D2R/β-arrestin; antagonist mode, 2.5 μM forskolin and 2.7 nM quinpirole
human D2R/β-arrestin [4] = biological target: T1, human D2R/β-arrestin; assay: β-arrestin agonist assay (PathHunter); format: cell-based; settings: CHO-K1 cells expressing human D2R/β-arrestin; agonist mode
Experimental: The detection reagent (9.6 μL, Buffer:Emerald II:Galactor-Star in a 19:5:1 ratio, i.e., 14.06 mL:3.7 mL:0.74 mL=18.5 mL) was then added to the agonist plates.

T1 sequence (P14416 whole entry): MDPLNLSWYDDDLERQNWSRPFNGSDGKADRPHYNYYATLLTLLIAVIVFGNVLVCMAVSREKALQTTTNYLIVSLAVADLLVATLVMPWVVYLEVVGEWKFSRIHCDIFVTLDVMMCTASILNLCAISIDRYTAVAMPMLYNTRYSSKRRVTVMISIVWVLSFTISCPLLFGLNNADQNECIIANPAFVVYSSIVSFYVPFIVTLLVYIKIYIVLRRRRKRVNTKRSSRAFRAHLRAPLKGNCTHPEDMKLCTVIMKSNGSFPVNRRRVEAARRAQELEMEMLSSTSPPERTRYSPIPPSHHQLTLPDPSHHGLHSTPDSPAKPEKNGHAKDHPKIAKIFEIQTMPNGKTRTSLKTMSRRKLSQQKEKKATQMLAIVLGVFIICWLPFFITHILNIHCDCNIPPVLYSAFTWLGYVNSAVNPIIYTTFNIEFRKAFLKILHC

IC50 (human D2R/β-arrestin [1]) | EC50 (human D2R/β-arrestin [2]) | IC50 (human D2R/β-arrestin [3]) | EC50 (human D2R/β-arrestin [4]) | SMILES
10 to 30 µM | > 30 µM | 1 to 10 µM | > 30 µM | CC1(Oc2ccccc2)CCN(CCC(=O)c2ccccc2C(F)(F)F)CC1 [Compound 116, 3-(4-Methyl-4-phenoxypiperidin-1-yl)-1-(2-(trifluoromethyl)phenyl) propan-1-one]
10 to 30 µM | > 30 µM | 1 to 10 µM | > 30 µM | CC1(Oc2ccc(Cl)cc2)CCN(CCC(C)(O)c2ccccc2C(F)(F)F)CC1 (centres unmarked) [Compound 117, 4-(4-(4-chlorophenoxy)-4-methylpiperidin-1-yl)-2-(2-(trifluoromethyl)phenyl)butan-2-ol]
0.1 to 1 µM | < 0.1 µM | 0.1 to 1 µM | > 30 µM | CC1(Oc2ccccc2)CCN(CCCc2ccccc2C(F)(F)F)CC1 [Compound 118, 4-Methyl-4-phenoxy-1-(3-(2-(trifluoromethyl)phenyl)propyl)piperidine]
1 to 10 µM | > 30 µM | 1 to 10 µM | > 30 µM | CC1(C)OC(c2ccccc2)C2(CCN(CCOc3ccccc3C(F)(F)F)CC2)O1 (centres unmarked) [Compound 119]
10 to 30 µM | 1 to 10 µM | > 30 µM | > 30 µM | CC1(Oc2ccc(Cl)cc2)CCN(CCCCOc2ccccc2)CC1 [Compound 120, 4-(4-chlorophenoxy)-4-methyl-1-(4-phenoxybutyl)piperidine]
1 to 10 µM | < 0.1 µM | > 30 µM | 0.1 to 1 µM | CC1(Oc2ccccc2)CCN(CCCCOc2ccccc2)CC1 [Compound 121, 4-Methyl-4-phenoxy-1-(4-phenoxybutyl)piperidine]
< 0.1 µM | > 30 µM | < 0.1 µM | > 30 µM | CC1(OCc2ccccc2)CCN(CCOc2ccccc2C(F)(F)F)CC1 [Compound 126, 4-(Benzyloxy)-4-methyl-1-(2-(2-(trifluoromethyl)phenoxy)ethyl) piperidine]
> 30 µM | > 30 µM | > 30 µM | > 30 µM | CC1(Oc2ccc(Cl)cc2)CCN(CC(=O)Nc2ccccc2C(F)(F)F)CC1 [Compound 129, 2-(4-(4-chlorophenoxy)-4-methylpiperidin-1-yl)-N-(2-(trifluoromethyl)phenyl)acetamide]
0.1 to 1 µM | > 30 µM | 0.1 to 1 µM | > 30 µM | CC1(O)CCN(CCCOc2ccccc2C(F)(F)F)CC1 [Compound 138, 4-methyl-1-(3-(2-(trifluoromethyl)phenoxy)propyl)piperidin-4-ol]
0.1 to 1 µM | 1 to 10 µM | 0.1 to 1 µM | > 30 µM | CC1(Oc2ccccc2)CCN(CCOc2ccccc2S(C)(=O)=O)CC1 [Compound 141, 4-methyl-1-(2-(2-(methylsulfonyl)phenoxy)ethyl)-4-phenoxypiperidine]

Further lines, the compound ahead of its results:

SMILES | IC50 (human D2R/β-arrestin [1]) | EC50 (human D2R/β-arrestin [2]) | IC50 (human D2R/β-arrestin [3]) | EC50 (human D2R/β-arrestin [4])
CC1(O)CCN(CCOc2ccccc2C(F)(F)F)CC1 [Compound 124, 4-Methyl-1-(2-(2-(trifluoromethyl)phenoxy)ethyl)piperidin-4-ol] | 0.1 to 1 µM | > 30 µM | < 0.1 µM | > 30 µM
CC1(Oc2ccc(Cl)cc2)CCN(CCOc2ccc3ncoc3c2)CC1 [Compound 127, 6-(2-(4-(4-chlorophenoxy)-4-methylpiperidin-1-yl)ethoxy)benzo[d] oxazole] | 1 to 10 µM | < 0.1 µM | > 30 µM | 0.1 to 1 µM
CC1(Oc2ccc(Cl)cc2)CCN(CCOc2cnccc2C(F)(F)F)CC1 [Compound 128, 3-(2-(4-(4-chlorophenoxy)-4-methylpiperidin-1-yl)ethoxy)-4-(trifluoromethyl)pyridine] | 1 to 10 µM | 1 to 10 µM | 0.1 to 1 µM | > 30 µM
CC1(O)CCN(CCOc2ccccc2)CC1 [Compound 130, 4-Methyl-1-(2-phenoxyethyl)piperidin-4-ol] | 10 to 30 µM | 0.1 to 1 µM | > 30 µM | 1 to 10 µM
CC1(O)CCN(CCOc2ccccc2F)CC1 [Compound 131, 1-(2-(2-fluorophenoxy)ethyl)-4-methylpiperidin-4-ol] | 1 to 10 µM | < 0.1 µM | > 30 µM | 0.1 to 1 µM
CC1(O)CCN(CCOc2ccc(C(F)(F)F)cc2)CC1 [Compound 132, 4-methyl-1-(2-(4-(trifluoromethyl)phenoxy)ethyl)piperidin-4-ol] | 10 to 30 µM | > 30 µM | 1 to 10 µM | > 30 µM
C[C@]1(O)C[C@H]2CC[C@@H](C1)N2CCOc1ccccc1C(F)(F)F [Compound 133, 3-methyl-8-(2-(2-(trifluoromethyl)phenoxy)ethyl)-8-azabicyclo[3.2.1] octan-3-ol] | 0.1 to 1 µM | > 30 µM | 0.1 to 1 µM | > 30 µM
CC1(O)CCCN(CCOc2ccccc2C(F)(F)F)C1 (centres unmarked) [Compound 134, 3-Methyl-1-(2-(2-(trifluoromethyl)phenoxy)ethyl)piperidin-3-ol] | 10 to 30 µM | > 30 µM | 1 to 10 µM | > 30 µM
FC(F)(F)c1ccccc1OCCN1CCC2(CC1)CCN2c1ccc(Cl)cc1 [Compound 136, 1-(4-Chlorophenyl)-7-(2-(2-(trifluoromethyl)phenoxy)ethyl)-1,7-diazaspiro[3.5]nonane] | 0.1 to 1 µM | > 30 µM | < 0.1 µM | > 30 µM
CC1(O)CCN(CCOc2ccccc2C(F)(F)F)C1 (centres unmarked) [Compound 139, 3-Methyl-1-(2-(2-(trifluoromethyl)phenoxy)ethyl)pyrrolidin-3-ol] | 1 to 10 µM | > 30 µM | 1 to 10 µM | > 30 µM
CC1(Oc2ccc(Cl)cc2)CCN(CC2COc3ccccc3O2)CC1 (centres unmarked) [Compound 142, 4-(4-chlorophenoxy)-1-((2,3-dihydrobenzo[b][1,4]dioxin-2-yl)methyl)-4-methylpiperidine] | > 30 µM | < 0.1 µM | > 30 µM | 0.1 to 1 µM
CC1(Oc2ccc(Cl)cc2)CCN(CCOC2CCCCC2)CC1 [Compound 143, 4-(4-chlorophenoxy)-1-(2-(cyclohexyloxy)ethyl)-4-methylpiperidine] | 10 to 30 µM | 10 to 30 µM | > 30 µM | > 30 µM
Clc1ccc2c(c1)C[C@@H]1CN(CCOc3ccccc3)C[C@H]1O2 [Compound 145, (3aS,9aR)-7-chloro-2-(2-phenoxyethyl)-1,2,3,3a,9,9a-hexahydrochromeno[2,3-c]pyrrole] | 10 to 30 µM | > 30 µM | 0.1 to 1 µM | > 30 µM
CC1(Oc2ccc(Cl)cc2)CCN(CCOc2ccccc2OC(F)(F)F)CC1 [Compound 146, 4-(4-chlorophenoxy)-4-methyl-1-(2-(2-(trifluoromethoxy)phenoxy)ethyl) piperidine] | 0.1 to 1 µM | 0.1 to 1 µM | > 30 µM | 0.1 to 1 µM
CC1(Oc2ccc(Cl)cc2)CCN(CCOc2ccc(C(F)(F)F)nc2)CC1 [Compound 147, 5-(2-(4-(4-chlorophenoxy)-4-methylpiperidin-1-yl)ethoxy)-2-(trifluoromethyl)pyridine] | > 30 µM | < 0.1 µM | > 30 µM | < 0.1 µM
CC1(Oc2ccc(Cl)cc2)CCN(CCOc2ccc(C(F)(F)F)cn2)CC1 [Compound 148, 2-(2-(4-(4-chlorophenoxy)-4-methylpiperidin-1-yl)ethoxy)-5-(trifluoromethyl) pyridine] | > 30 µM | 10 to 30 µM | > 30 µM | > 30 µM
CC1(Oc2ccc(Cl)cc2)CCN(CCOc2ccc(F)cc2)CC1 [Compound 149, 4-(4-chlorophenoxy)-1-(2-(4-fluorophenoxy)ethyl)-4-methylpiperidine] | 1 to 10 µM | < 0.1 µM | > 30 µM | 0.1 to 1 µM
Cc1ccc(OCCN2CCC(C)(Oc3ccc(Cl)cc3)CC2)cc1 [Compound 150, 4-(4-chlorophenoxy)-4-methyl-1-(2-(p-tolyloxy)ethyl)piperidine] | > 30 µM | < 0.1 µM | > 30 µM | 0.1 to 1 µM
CC1(Oc2ccc(Cl)cc2)CCN(CCOc2ccc(Cl)cc2)CC1 [Compound 151, 4-(4-chlorophenoxy)-1-(2-(4-chlorophenoxy)ethyl)-4-methylpiperidine] | > 30 µM | < 0.1 µM | > 30 µM | 0.1 to 1 µM
CC1(Oc2ccc(Cl)cc2)CCN(CCOc2ccc(S(C)(=O)=O)cc2)CC1 [Compound 152, 4-(4-chlorophenoxy)-4-methyl-1-(2-(4-(methylsulfonyl)phenoxy)ethyl)piperidine] | 10 to 30 µM | 10 to 30 µM | 10 to 30 µM | > 30 µM
CC(=O)c1ccc(OCCN2CCC(C)(Oc3ccc(Cl)cc3)CC2)cc1 [Compound 153, 1-(4-(2-(4-(4-chlorophenoxy)-4-methylpiperidin-1-yl)ethoxy)phenyl)ethanone] | 1 to 10 µM | > 30 µM | 1 to 10 µM | > 30 µM
CC(O)c1ccc(OCCN2CCC(C)(Oc3ccc(Cl)cc3)CC2)cc1 (centres unmarked) [Compound 154, 1-(4-(2-(4-(4-chlorophenoxy)-4-methylpiperidin-1-yl)ethoxy)phenyl)ethanol] | 10 to 30 µM | > 30 µM | 0.1 to 1 µM | > 30 µM
